Test system: 439559-082-T-J2-PDC spheroid viability
Test: Anticancer human tumor 439559-082-T-J2-PDC patient-derived colon adenocarcinoma cell line growth inhibition [POLQ]
Conditions: spheroids with HUVEC and MSC; for IC50: curve of first compound; for viability, T/C: stronger effect = lower value
How it was run: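 Growth inhibition in 3D: complex spheroids (tumor PDC, HUVEC, MSC) treated with POLQ inhibitor combinations; where Cmax unknown, highest tested concentration 10 microM, except SN-38 at 1 microM.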

[1] = second compound 0.0316 µM, first compound 0.0316 µM
[2] = second compound 0.0316 µM, first compound 0.1 µM
[3] = second compound 0.0316 µM, first compound 0.316 µM
[4] = second compound 0.0316 µM, first compound 1 µM
[5] = second compound 0.0316 µM, first compound 3.16 µM
[6] = second compound 0.0316 µM, first compound 10 µM
[7] = second compound 0.1 µM, first compound 0.0316 µM
[8] = second compound 0.1 µM, first compound 0.1 µM
[9] = second compound 0.1 µM, first compound 0.316 µM
[10] = second compound 0.1 µM, first compound 1 µM
[11] = second compound 0.1 µM, first compound 3.16 µM
[12] = second compound 0.1 µM, first compound 10 µM
[13] = second compound 0.316 µM, first compound 0.0316 µM
[14] = second compound 0.316 µM, first compound 0.1 µM
[15] = second compound 0.316 µM, first compound 0.316 µM
[16] = second compound 0.316 µM, first compound 1 µM
[17] = second compound 0.316 µM, first compound 3.16 µM
[18] = second compound 0.316 µM, first compound 10 µM
[19] = second compound 1 µM, first compound 0.0316 µM
[20] = second compound 1 µM, first compound 0.1 µM
[21] = second compound 1 µM, first compound 0.316 µM
[22] = second compound 1 µM, first compound 1 µM
[23] = second compound 1 µM, first compound 3.16 µM
[24] = second compound 1 µM, first compound 10 µM
[25] = second compound 3.16 µM, first compound 0.0316 µM
[26] = second compound 3.16 µM, first compound 0.1 µM
[27] = second compound 3.16 µM, first compound 0.316 µM
[28] = second compound 3.16 µM, first compound 1 µM
[29] = second compound 3.16 µM, first compound 3.16 µM
[30] = second compound 3.16 µM, first compound 10 µM
[31] = second compound 10 µM, first compound 0.0316 µM
[32] = second compound 10 µM, first compound 0.1 µM
[33] = second compound 10 µM, first compound 0.316 µM
[34] = second compound 10 µM, first compound 1 µM
[35] = second compound 10 µM, first compound 3.16 µM
[36] = second compound 10 µM, first compound 10 µM
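Also: spheroids exposed to compounds for seven days before readout.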
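For viability, T/C in this document: 100% = DMSO vehicle control viability.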

**Q.** Which IC50 (second compound 0.0316 µM) does the source give for `Nc1ccn(C2OC(CO)C(O)C2(F)F)c(=O)n1` (stereo unspecified) + Cc1cccc(N(C)C(=O)C2C(O)CCN2c2nc(C)cc(C(F)(F)F)c2C#N)c1 here?
**A.** 0.923 µM

**Q.** And the IC50 (second compound 0.1 µM)?
**A.** 0.952 µM

**Q.** And the IC50 (second compound 0.316 µM)?
**A.** 0.829 µM

**Q.** And the IC50 (second compound 1 µM)?
**A.** 0.676 µM

**Q.** And the IC50 (second compound 3.16 µM)?
**A.** 0.802 µM

**Q.** What about the IC50 (second compound 10 µM) of the same molecule?
**A.** 0.829 µM

**Q.** And the viability, T/C [1]?
**A.** 77.8%

**Q.** And the viability, T/C [2]?
**A.** 71.7%

**Q.** What about the viability, T/C [3] of the same molecule?
**A.** 60.6%

**Q.** What about the viability, T/C [4] of the same molecule?
**A.** 49.9%

**Q.** What about the viability, T/C [5] of the same molecule?
**A.** 37.5%

**Q.** And the viability, T/C [6]?
**A.** 30.6%

**Q.** And the viability, T/C [7]?
**A.** 85.4%

**Q.** And the viability, T/C [8]?
**A.** 76.9%

**Q.** And the viability, T/C [9]?
**A.** 63.8%

**Q.** And the viability, T/C [10]?
**A.** 48.5%

**Q.** And the viability, T/C [11]?
**A.** 39.8%

**Q.** What about the viability, T/C [12] of the same molecule?
**A.** 32.1%

**Q.** What about the viability, T/C [13] of the same molecule?
**A.** 82.5%

**Q.** What about the viability, T/C [14] of the same molecule?
**A.** 75.8%

**Q.** And the viability, T/C [15]?
**A.** 63.3%

**Q.** And the viability, T/C [16]?
**A.** 47.5%

**Q.** And the viability, T/C [17]?
**A.** 35.4%

**Q.** What about the viability, T/C [18] of the same molecule?
**A.** 29.6%

**Q.** And the viability, T/C [19]?
**A.** 83.2%

**Q.** And the viability, T/C [20]?
**A.** 76.1%

**Q.** What about the viability, T/C [21] of the same molecule?
**A.** 61.3%

**Q.** And the viability, T/C [22]?
**A.** 43.1%

**Q.** And the viability, T/C [23]?
**A.** 37.7%

**Q.** And the viability, T/C [24]?
**A.** 30.9%

**Q.** What about the viability, T/C [25] of the same molecule?
**A.** 79.8%

**Q.** What about the viability, T/C [26] of the same molecule?
**A.** 69.3%

**Q.** And the viability, T/C [27]?
**A.** 59.4%

**Q.** And the viability, T/C [28]?
**A.** 47.1%

**Q.** And the viability, T/C [29]?
**A.** 38.3%

**Q.** And the viability, T/C [30]?
**A.** 31.4%

**Q.** And the viability, T/C [31]?
**A.** 80.3%

**Q.** And the viability, T/C [32]?
**A.** 70.6%

**Q.** What about the viability, T/C [33] of the same molecule?
**A.** 57.1%

**Q.** And the viability, T/C [34]?
**A.** 49.5%

**Q.** What about the viability, T/C [35] of the same molecule?
**A.** 40%

**Q.** What about the viability, T/C [36] of the same molecule?
**A.** 35%

**Q.** With `O=C(c1cc(Cc2n[nH]c(=O)c3ccccc23)ccc1F)N1CCN(C(=O)C2CC2)CC1` + Cc1cccc(N(C)C(=O)C2C(O)CCN2c2nc(C)cc(C(F)(F)F)c2C#N)c1 as the molecule, how does the IC50 (second compound 0.0316 µM) read?
**A.** > 10 µM

**Q.** And the IC50 (second compound 0.1 µM)?
**A.** > 10 µM

**Q.** And the IC50 (second compound 0.316 µM)?
**A.** > 10 µM

**Q.** What about the IC50 (second compound 1 µM) of the same molecule?
**A.** > 10 µM

**Q.** What about the IC50 (second compound 3.16 µM) of the same molecule?
**A.** > 10 µM

**Q.** What about the IC50 (second compound 10 µM) of the same molecule?
**A.** > 10 µM

**Q.** What about the viability, T/C [1] of the same molecule?
**A.** 95.8%

**Q.** And the viability, T/C [2]?
**A.** 103%

**Q.** And the viability, T/C [3]?
**A.** 107%

**Q.** What about the viability, T/C [4] of the same molecule?
**A.** 107%

**Q.** And the viability, T/C [5]?
**A.** 95%

**Q.** And the viability, T/C [6]?
**A.** 92.1%

**Q.** And the viability, T/C [7]?
**A.** 103%

**Q.** What about the viability, T/C [8] of the same molecule?
**A.** 98.7%

**Q.** And the viability, T/C [9]?
**A.** 101%

**Q.** And the viability, T/C [10]?
**A.** 109%

**Q.** What about the viability, T/C [11] of the same molecule?
**A.** 94.4%

**Q.** And the viability, T/C [12]?
**A.** 101%

**Q.** What about the viability, T/C [13] of the same molecule?
**A.** 103%

**Q.** And the viability, T/C [14]?
**A.** 100%

**Q.** And the viability, T/C [15]?
**A.** 98.4%

**Q.** What about the viability, T/C [16] of the same molecule?
**A.** 108%

**Q.** What about the viability, T/C [17] of the same molecule?
**A.** 102%

**Q.** What about the viability, T/C [18] of the same molecule?
**A.** 97.1%

**Q.** What about the viability, T/C [19] of the same molecule?
**A.** 103%

**Q.** What about the viability, T/C [20] of the same molecule?
**A.** 106%

**Q.** And the viability, T/C [21]?
**A.** 102%

**Q.** What about the viability, T/C [22] of the same molecule?
**A.** 103%

**Q.** What about the viability, T/C [23] of the same molecule?
**A.** 98.8%

**Q.** What about the viability, T/C [24] of the same molecule?
**A.** 98.8%

**Q.** What about the viability, T/C [25] of the same molecule?
**A.** 94%

**Q.** What about the viability, T/C [26] of the same molecule?
**A.** 106%

**Q.** And the viability, T/C [27]?
**A.** 98.4%

**Q.** What about the viability, T/C [28] of the same molecule?
**A.** 98.3%

**Q.** What about the viability, T/C [29] of the same molecule?
**A.** 103%

**Q.** And the viability, T/C [30]?
**A.** 95.2%

**Q.** What about the viability, T/C [31] of the same molecule?
**A.** 97.9%

**Q.** What about the viability, T/C [32] of the same molecule?
**A.** 91.4%

**Q.** And the viability, T/C [33]?
**A.** 95.3%

**Q.** What about the viability, T/C [34] of the same molecule?
**A.** 98.3%

**Q.** And the viability, T/C [35]?
**A.** 97.5%

**Q.** What about the viability, T/C [36] of the same molecule?
**A.** 83.6%

**Q.** Which IC50 (second compound 0.0316 µM) does the source give for `O=c1[nH]cc(F)c(=O)[nH]1` + Cc1cccc(N(C)C(=O)C2C(O)CCN2c2nc(C)cc(C(F)(F)F)c2C#N)c1 here?
**A.** > 10 µM

**Q.** And the IC50 (second compound 0.1 µM)?
**A.** > 10 µM

**Q.** And the IC50 (second compound 0.316 µM)?
**A.** > 10 µM

**Q.** And the IC50 (second compound 1 µM)?
**A.** > 10 µM

**Q.** What about the IC50 (second compound 3.16 µM) of the same molecule?
**A.** > 10 µM

**Q.** And the IC50 (second compound 10 µM)?
**A.** > 10 µM

**Q.** And the viability, T/C [1]?
**A.** 102%

**Q.** What about the viability, T/C [2] of the same molecule?
**A.** 93.3%

**Q.** And the viability, T/C [3]?
**A.** 82.2%

**Q.** And the viability, T/C [4]?
**A.** 78.3%

**Q.** And the viability, T/C [5]?
**A.** 71.9%

**Q.** And the viability, T/C [6]?
**A.** 66.7%

**Q.** What about the viability, T/C [7] of the same molecule?
**A.** 106%

**Q.** What about the viability, T/C [8] of the same molecule?
**A.** 91.4%

**Q.** And the viability, T/C [9]?
**A.** 80.8%

**Q.** What about the viability, T/C [10] of the same molecule?
**A.** 76.6%

**Q.** What about the viability, T/C [11] of the same molecule?
**A.** 73.4%

**Q.** And the viability, T/C [12]?
**A.** 70%

**Q.** What about the viability, T/C [13] of the same molecule?
**A.** 104%

**Q.** What about the viability, T/C [14] of the same molecule?
**A.** 97.4%

**Q.** And the viability, T/C [15]?
**A.** 84.6%

**Q.** What about the viability, T/C [16] of the same molecule?
**A.** 75.1%

**Q.** What about the viability, T/C [17] of the same molecule?
**A.** 73.1%

**Q.** What about the viability, T/C [18] of the same molecule?
**A.** 68.8%

**Q.** And the viability, T/C [19]?
**A.** 97.5%

**Q.** What about the viability, T/C [20] of the same molecule?
**A.** 94.4%

**Q.** What about the viability, T/C [21] of the same molecule?
**A.** 84.3%

**Q.** And the viability, T/C [22]?
**A.** 73.7%

**Q.** What about the viability, T/C [23] of the same molecule?
**A.** 76.7%

**Q.** And the viability, T/C [24]?
**A.** 71%

**Q.** And the viability, T/C [25]?
**A.** 93.1%

**Q.** What about the viability, T/C [26] of the same molecule?
**A.** 94%

**Q.** What about the viability, T/C [27] of the same molecule?
**A.** 84.5%

**Q.** What about the viability, T/C [28] of the same molecule?
**A.** 72%

**Q.** What about the viability, T/C [29] of the same molecule?
**A.** 71%

**Q.** And the viability, T/C [30]?
**A.** 68%

**Q.** And the viability, T/C [31]?
**A.** 91.8%

**Q.** What about the viability, T/C [32] of the same molecule?
**A.** 83.3%

**Q.** What about the viability, T/C [33] of the same molecule?
**A.** 78.7%

**Q.** What about the viability, T/C [34] of the same molecule?
**A.** 70.8%

**Q.** What about the viability, T/C [35] of the same molecule?
**A.** 71%

**Q.** And the viability, T/C [36]?
**A.** 64%
